This is an account of results in PubChem BioAssay (NCI).

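Step 1: Grow cells in 96-well plates. Step 2: Expose to compound for 48 hours at 5 concentrations. Step 3: Interpolate endpoints linearly; if unreached, use highest concentration. At the GI50, growth is halved. TGI: concentration producing complete growth inhibition.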 Bounds are passed on as bounds.

Some test systems named below: A549 NSCLC; HOP-92 NSCLC; MCF7 breast; NCI/ADR-RES ovarian; SK-MEL-28 melanoma; U251 CNS; A498 renal; MOLT-4 leukemia.
Common to all, as to assay: NCI tumour cell line growth inhibition, 48 h

For the molecule `CC[C@H](C)[C@H](NC(=O)N[C@@H](C)c1ccccc1)C(=O)N(C)[C@H](C[C@@H](OC(C)=O)c1nc(C(=O)N[C@@H](Cc2ccccc2)C[C@H](C)C(=O)OC)cs1)C(C)C`, the GI50 with A549 NSCLC was 67.3 µM; in the test on HOP-92 NSCLC, 11.1 µM; in the test with MCF7 breast it was 7.28 µM; in the test on NCI/ADR-RES ovarian it was 45.8 µM; in the test on SK-MEL-28 melanoma, 47 µM; in the test on U251 CNS it was 33.1 µM. The TGI with A549 NSCLC was more than 100 µM; with HOP-92 NSCLC it was 90.5 µM; with MCF7 breast, more than 100 µM; in the test on NCI/ADR-RES ovarian it was more than 100 µM; in the test with SK-MEL-28 melanoma, more than 100 µM; in the test on U251 CNS, more than 100 µM.
For `Cc1ccc(NCCNCC(O)CO)c2c(=O)c3ccccc3sc12` (stereo not drawn), the GI50 with A549 NSCLC was 0.849 µM; with HOP-92 NSCLC, 1.98 µM; with MCF7 breast it was 1.19 µM; in the test on NCI/ADR-RES ovarian, 1.67 µM; in the test with SK-MEL-28 melanoma it was 1.69 µM; in the test with U251 CNS, 1.67 µM. The TGI in the test on A549 NSCLC came to 2.38 µM; in the test on HOP-92 NSCLC, 7.81 µM; in the test on MCF7 breast, 2.65 µM; in the test on NCI/ADR-RES ovarian it was 3.75 µM; in the test on SK-MEL-28 melanoma, 3.3 µM; with U251 CNS, 3.51 µM.
As to `COc1ccc(-c2nn3ncccc3c2-c2ccnc(Nc3cccc(C(F)(F)F)c3)n2)cc1`, the GI50 was 4.41 µM in the test on A498 renal; 9.38 µM with A549 NSCLC; 3.03 µM in the test with HOP-92 NSCLC; 7.42 µM in the test with MCF7 breast; 8.8 µM in the test with MOLT-4 leukemia; 6.16 µM in the test with NCI/ADR-RES ovarian. Further, the GI50 in the test with SK-MEL-28 melanoma was 16.7 µM; in the test with U251 CNS, 11.6 µM. The TGI was more than 20.3 µM in the test with A498 renal; more than 25 µM in the test on A549 NSCLC; 16.1 µM in the test with HOP-92 NSCLC; more than 25 µM in the test on MCF7 breast; more than 25 µM with MOLT-4 leukemia; more than 25 µM with NCI/ADR-RES ovarian. Also, the TGI with SK-MEL-28 melanoma and with U251 CNS was more than 25 µM each time.
Regarding `Cc1ccc(-c2cc(C(Cl)Cl)on2)cc1`, the GI50 in the test on A498 renal was 42.7 µM; with A549 NSCLC, 65.6 µM; in the test on HOP-92 NSCLC it was 33.5 µM; in the test with MCF7 breast, 97.6 µM; in the test with MOLT-4 leukemia it was 26.8 µM; in the test with NCI/ADR-RES ovarian, 44.9 µM. In addition, the GI50 in the test with SK-MEL-28 melanoma is more than 100 µM; in the test with U251 CNS it was 55.1 µM. Further, the TGI with A498 renal, with A549 NSCLC, in the test with HOP-92 NSCLC, in the test with MCF7 breast, with MOLT-4 leukemia and in the test on NCI/ADR-RES ovarian was more than 100 µM throughout. The TGI in the test with SK-MEL-28 melanoma and with U251 CNS was more than 100 µM each time.
For the molecule `O=c1c2ccccc2c(=O)c2c1sc1c(=O)c3ccc(O)cc3c(=O)c12`, the GI50 with A498 renal is 0.574 µM; with A549 NSCLC it was 0.222 µM; in the test on MOLT-4 leukemia it was 2.17 µM; in the test on NCI/ADR-RES ovarian, 1.45 µM; with SK-MEL-28 melanoma, 0.247 µM; in the test with U251 CNS, 1.01 µM. Also, the TGI in the test on A498 renal was determined as 1.72 µM; in the test on A549 NSCLC it was 0.497 µM; in the test on MOLT-4 leukemia, 8.07 µM; in the test on NCI/ADR-RES ovarian, 6.87 µM; in the test on SK-MEL-28 melanoma, 0.541 µM; in the test on U251 CNS, 2.39 µM.
Consider `CCCCCCCCCCCCCCCCCCNC(=O)[C@H]1CSC(c2ccc(F)c(OC)c2)N1` (stereo partly drawn), for which the GI50 with A498 renal was more than 50 µM; in the test on HOP-92 NSCLC, 1.66 µM; with MCF7 breast, 0.141 µM; with MOLT-4 leukemia, 0.717 µM; in the test with NCI/ADR-RES ovarian, 1.07 µM; with SK-MEL-28 melanoma it was 0.647 µM. Also, the GI50 with U251 CNS is 0.866 µM. Also, the TGI with A498 renal is more than 50 µM; with HOP-92 NSCLC, 4.61 µM; in the test on MCF7 breast, 0.541 µM; with MOLT-4 leukemia, 5.17 µM; in the test on NCI/ADR-RES ovarian it was 2.41 µM; with SK-MEL-28 melanoma it was 1.33 µM. Further, the TGI with U251 CNS was 1.6 µM.
On to `COC12C=C/C(=C(/C(=O)OCc3csc(SC)n3)C(=O)CCCCCCCCC3(OC)C=C/C(=C(/C(=O)OCc4cnc(SC)s4)C(=O)CCCCCCCC1)O3)O2` (stereo not drawn), for which the GI50 in the test on A498 renal is 2.44 µM; in the test with A549 NSCLC it was 4.65 µM; in the test on HOP-92 NSCLC, 12.3 µM; with MCF7 breast, 1.13 µM; with NCI/ADR-RES ovarian, 31.3 µM; in the test on SK-MEL-28 melanoma, 0.955 µM. Further, in the test on U251 CNS, the GI50 was 3.98 µM. Further, the TGI in the test with A498 renal was 21.8 µM; with A549 NSCLC, more than 100 µM; in the test with HOP-92 NSCLC, 32.3 µM; in the test with MCF7 breast, more than 100 µM; in the test with NCI/ADR-RES ovarian it was more than 100 µM; with SK-MEL-28 melanoma, more than 100 µM. The molecule also came in with a TGI with U251 CNS of 43.6 µM.
As for `C#CCn1cc(C=C2C(=O)NC(=S)NC2=O)c2cc(Cl)ccc21`, the GI50 in the test with A549 NSCLC is 3.63 µM; with HOP-92 NSCLC it was 1.92 µM; with MCF7 breast it was 1.67 µM; in the test on MOLT-4 leukemia, 2.44 µM; in the test on NCI/ADR-RES ovarian, 3.09 µM; in the test on SK-MEL-28 melanoma, 2.33 µM. For the same molecule, in the test with U251 CNS, the GI50 was 1.87 µM. In addition, the TGI with A549 NSCLC amounted to 16.6 µM; in the test with HOP-92 NSCLC, 5.26 µM; with MCF7 breast, 3.46 µM; in the test on MOLT-4 leukemia, 6.38 µM; in the test with NCI/ADR-RES ovarian it was 12.8 µM; in the test on SK-MEL-28 melanoma it was 5.56 µM. In addition, the TGI in the test with U251 CNS amounted to 3.9 µM.
As to `CC(C)(C)OC(=O)n1c(Cl)c(C(=O)N=C=S)c2ccccc21`, the GI50 in the test on A498 renal was 92.6 µM; in the test on A549 NSCLC it was 50 µM; with HOP-92 NSCLC, 17.2 µM; with MCF7 breast it was 37.2 µM; with NCI/ADR-RES ovarian, 18.5 µM; in the test with SK-MEL-28 melanoma it was 80.7 µM. In addition, the GI50 with U251 CNS is 34.2 µM. In addition, the TGI with A498 renal is more than 100 µM; in the test with A549 NSCLC, more than 100 µM; in the test with HOP-92 NSCLC, 65.4 µM; in the test on MCF7 breast, more than 100 µM; in the test with NCI/ADR-RES ovarian, 62.6 µM; in the test on SK-MEL-28 melanoma, more than 100 µM. This molecule also had a TGI in the test on U251 CNS of more than 100 µM.
`CCOC(=O)/N=c1\ssc(Cl)c1Cl`: the GI50 with A549 NSCLC was 24.1 µM; with HOP-92 NSCLC it was 5.66 µM; with MCF7 breast, 3.54 µM; in the test on MOLT-4 leukemia, 3.06 µM; in the test on NCI/ADR-RES ovarian, 4.11 µM; with SK-MEL-28 melanoma, 3.9 µM. For the same molecule, the GI50 in the test with U251 CNS was 3.34 µM. The TGI in the test with A549 NSCLC is 73.8 µM; with HOP-92 NSCLC, more than 100 µM; with MCF7 breast it was 16.8 µM; with MOLT-4 leukemia it was more than 100 µM; in the test with NCI/ADR-RES ovarian, more than 100 µM; with SK-MEL-28 melanoma, 27.1 µM. The molecule also came in with a TGI with U251 CNS of 13.8 µM.
